The nature of data set [1]: Extraction with TODGA from HNO3, complexing agent in aqueous phase, distribution ratio by gamma spectrometry. The note with it: for DEu(III) / DAm(III): 0.2 mol/L TODGA + 5 % vol. 1-Octanol in Kerosin; for SFEu(III)/Am(III): separation factor DEu(III)/DAm(III). The text has this:
(§1) D2EHPA bestimmt. Aus allen Versuchen wurden die Verteilungsverhältnisse (Verhältnis der organischen zur wässrigen Konzentration) von Am(III) und Eu(III) mittels Gamma-Spektrometrie bestimmt. Die Berechnung der Verteilungsverhältnisse DM ergibt sich aus den Zählraten des Gammazählers, welcher die radioaktiven ^241Am (III) - und ^152Eu(III) - Isotope in volumengleichen Proben der wässrigen bzw. der organischen Phase erfasst gem. der Gleichung DM=[M]org/[M]aq, wobei die Konzentration des Metalls M aus [M]=Zählrate/Volumen berechnet wird.
Es wurden […] und ^152Eu(III) (je ca. 1 kBq/mL) aus 0.09 / 0.18 / 0.44 / 0.88 / 1.8 mol/L HNO3 in eine organische Phase bestehend aus (0.2 mol/L TODGA + 5 % vol. 1-Octanol in Kerosin) extrahiert.
Es wurden ^241Am(III) und ^152Eu(III) (je ca. 1 kBq/mL) aus 0.5 mol/L HNO3 in eine organische Phase bestehend aus (0.2 mol/L TODGA + 5 % vol. 1-Octanol in Kerosin) extrahiert. Die wässrige Phase enthielt entweder 0 mmol/L oder 10 mmol/L SO3-Ph-BTBP.

A short description of data set [2]: Extraction with D2EHPA from HNO3, complexing agent in aqueous phase, distribution ratio by gamma spectrometry. The note with it: for DAm(III) / DEu(III): 10 mmol/L SO3-Ph-BTP in aqueous phase, 0.1 mol/L D2EHPA in Kerosin; for SFEu(III)/Am(III): separation factor DEu(III)/DAm(III), D2EHPA.
Text: as §1
Es wurden ^241Am(III) und ^152Eu(III) (je ca. 1 kBq/mL) aus 0.045 / 0.09 / 0.18 / 0.44 mol/L HNO3 in eine organische Phase bestehend aus (0.1 mol/L D2EHPA in Kerosin) extrahiert.

Data set [3] is described as follows: Back-extraction from loaded TODGA organic phase (simulated PUREX raffinate) into aqueous complexing agent solution. The note with it: after back-extraction into 10 mmol/L SO3-Ph-BTP in water.
Text: as §1
Einem inaktiven Simulat eines PUREX-Raffinats wurden ^241Am(III) und ^I52Eu(III) (je ca. 1 kBq/mL) zugegeben. Es wurde in eine organische Phase bestehend aus (0.2 mol/L TODGA + 5 % vol. 1-Octanol in Kerosin) extrahiert.

The nature of another data set: Solubility in water. Type of data set: physicochemical.
Where [4] appears, read: loaded 0.2 mol/L TODGA + 5 % vol. 1-Octanol in Kerosin.
Setting [5] is: 10 mmol/L SO3-Ph-BTBP in aqueous phase, 0.5 mol/L HNO3.

A value given as a limit tells only on which side of the number the result lay.

With “2,6-Bis(5,6-di(sulfophenyl)-1,2,4-triazin-3-yl)pyridine [SO3-Ph-BTP]”, the “DEu(III)” value in data set [1] (10 mmol/L SO3-Ph-BTP in aqueous phase, 0,09 mol/L HNO3) was 1.2; in data set [1] (10 mmol/L SO3-Ph-BTP in aqueous phase, 0,18 mol/L HNO3) it was 11.9; in data set [1] (10 mmol/L SO3-Ph-BTP in aqueous phase, 0,44 mol/L HNO3), 180; in data set [1] (10 mmol/L SO3-Ph-BTP in aqueous phase, 0,88 mol/L HNO3), > 10^3; in data set [1] (10 mmol/L SO3-Ph-BTP in aqueous phase, 1,8 mol/L HNO3), > 10^3; in data set [2] (0.045 mol/L HNO3), 5.3. In addition, the “DEu(III)” value in data set [2] (0.09 mol/L HNO3) is 1.4; in data set [2] (0.18 mol/L HNO3) it was 0.37; in data set [2] (0.44 mol/L HNO3) it was 0.06; in data set [3] (setting [4]) it was 49. For the same substance, the “Trennfaktor SFEu(III)/Am(III)” value in data set [1] (10 mmol/L SO3-Ph-BTP, ca. 0.1-0.5 mol/L HNO3, TODGA) was 500-1000; in data set [2] (10 mmol/L SO3-Ph-BTP, D2EHPA in Kerosin) it was greater than 3000; in data set [3] (loaded TODGA phase), 830. Besides, the “DAm(III)” value in data set [1] (10 mmol/L complexing agent in aqueous phase, 0,09 mol/L HNO3) was 1.1·10^-3; in data set [1] (10 mmol/L complexing agent in aqueous phase, 0,18 mol/L HNO3), 0.014; in data set [1] (10 mmol/L complexing agent in aqueous phase, 0,44 mol/L HNO3), 0.35; in data set [1] (10 mmol/L complexing agent in aqueous phase, 0,88 mol/L HNO3) it was 4.5; in data set [1] (10 mmol/L complexing agent in aqueous phase, 1,8 mol/L HNO3) it was 90; in data set [2] (0.045 mol/L HNO3), 1.10^-3. Besides, the “DAm(III)” value in data set [2] (0.09 mol/L HNO3) is given as 4.10^-4; in data set [2] (0.18 mol/L HNO3), 5.10^-5; in data set [2] (0.44 mol/L HNO3) it was “< d.l”; in data set [3] (setting [4]) it was 0.059. In addition, the “SFEu(III)/Am(III)” value in data set [1] (10 mmol/L complexing agent, 0,09 mol/L HNO3, TODGA) is recorded as 1100; in data set [1] (10 mmol/L complexing agent, 0,18 mol/L HNO3, TODGA) it was 850; in data set [1] (10 mmol/L complexing agent, 0,44 mol/L HNO3, TODGA), 510; in data set [1] (10 mmol/L complexing agent, 0,88 mol/L HNO3, TODGA), greater than 220; in data set [1] (10 mmol/L complexing agent, 1,8 mol/L HNO3, TODGA), greater than 11; in data set [2] (10 mmol/L SO3-Ph-BTP, 0.045 mol/L HNO3), 5200. Besides, the “SFEu(III)/Am(III)” value in data set [2] (10 mmol/L SO3-Ph-BTP, 0.09 mol/L HNO3) stood at 3400; in data set [2] (10 mmol/L SO3-Ph-BTP, 0.18 mol/L HNO3), 7000.
On to “6,6'-Bis(5, 6-di(sulfophenyl)-1, 2, 4-triazin-3-yl)-2,2'-bipyridine [SO3-Ph-BTBP]”, for which the “Löslichkeit in Wasser” value in “Solubility in water” was greater than 0.1 mol/L. In addition, in data set [1] (setting [5]), the “DAm(III)” value was determined as 0.33 and the “DEu(III)” value came to 150. The “SFEu(III)/Am(III)” value in data set [1] (10 mmol/L SO3-Ph-BTBP, 0.5 mol/L HNO3, TODGA) is 450.

The values are drawn from patent EP2377861B1, “Water-soluble bis-triazinyl-pyridines, bipyridines and terpyridines, synthesis and use of same” (Karlsruher Institut für Technologie, priority 2010, dated 2011).
